Reference: PubChem BioAssay AID1963974 (Molecular Pharmacology Branch, DTP, NCI, 2024)
Values joined by “and” are separate entries in the source; they are usually repeats but may differ in a detail not shown here. Equal values may be shown once.

Test system: 648629-189-R-J1-PDC spheroids with HUVEC/MSC, viability
Assay: Anticancer human tumor 648629-189-R-J1-PDC patient-derived bladder carcinoma cell line growth inhibition [PI3K]
Conditions: for viability, T/C: stronger effect = lower value
How it was run: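 Three cell types, namely tumor cells, endothelial cells and mesenchymal stem cells, formed each spheroid. Combinations with four PI3K inhibitors were screened at clinically achievable concentrations decreasing by half-log, and spheroid viability was recorded.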

[1] = curve of first compound, second compound 0.0316 µM
[2] = curve of first compound, second compound 0.1 µM
[3] = curve of first compound, second compound 0.316 µM
[4] = curve of first compound, second compound 1 µM
[5] = curve of first compound, second compound 3.16 µM
[6] = curve of first compound, second compound 10 µM
[7] = second compound 0.0316 µM, first compound 0.0316 µM
[8] = second compound 0.0316 µM, first compound 0.1 µM
[9] = second compound 0.0316 µM, first compound 0.316 µM
[10] = second compound 0.0316 µM, first compound 1 µM
[11] = second compound 0.0316 µM, first compound 3.16 µM
[12] = second compound 0.0316 µM, first compound 10 µM
[13] = second compound 0.1 µM, first compound 0.0316 µM
[14] = second compound 0.1 µM, first compound 0.1 µM
[15] = second compound 0.1 µM, first compound 0.316 µM
[16] = second compound 0.1 µM, first compound 1 µM
[17] = second compound 0.1 µM, first compound 3.16 µM
[18] = second compound 0.1 µM, first compound 10 µM
[19] = second compound 0.316 µM, first compound 0.0316 µM
[20] = second compound 0.316 µM, first compound 0.1 µM
[21] = second compound 0.316 µM, first compound 0.316 µM
[22] = second compound 0.316 µM, first compound 1 µM
[23] = second compound 0.316 µM, first compound 3.16 µM
[24] = second compound 0.316 µM, first compound 10 µM
[25] = second compound 1 µM, first compound 0.0316 µM
[26] = second compound 1 µM, first compound 0.1 µM
[27] = second compound 1 µM, first compound 0.316 µM
[28] = second compound 1 µM, first compound 1 µM
[29] = second compound 1 µM, first compound 3.16 µM
[30] = second compound 1 µM, first compound 10 µM
[31] = second compound 3.16 µM, first compound 0.0316 µM
[32] = second compound 3.16 µM, first compound 0.1 µM
[33] = second compound 3.16 µM, first compound 0.316 µM
[34] = second compound 3.16 µM, first compound 1 µM
[35] = second compound 3.16 µM, first compound 3.16 µM
[36] = second compound 3.16 µM, first compound 10 µM
[37] = second compound 10 µM, first compound 0.0316 µM
[38] = second compound 10 µM, first compound 0.1 µM
[39] = second compound 10 µM, first compound 0.316 µM
[40] = second compound 10 µM, first compound 1 µM
[41] = second compound 10 µM, first compound 3.16 µM
[42] = second compound 10 µM, first compound 10 µM
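Also: spheroids exposed to agents for seven days before reading.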
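For viability, T/C in this document: percent of vehicle control luminescence where 100% = DMSO treated spheroids.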

Q: `C#Cc1c(F)ccc2cc(O)cc(-c3ncc4c(N5CC6CCC(C5)N6)nc(OCC56CCCN5CC(F)C6)nc4c3F)c12` (centres undefined) + Cc1nc(NC(=O)N2CCCC2C(N)=O)sc1-c1ccnc(C(C)(C)C(F)(F)F)c1 was tested. Which IC50 [1] did it give?
A: > 10 µM

Q: And the IC50 [2]?
A: > 10 µM

Q: And the IC50 [3]?
A: > 10 µM

Q: What about the IC50 [4] of the same compound?
A: > 10 µM

Q: What about the IC50 [5] of the same compound?
A: > 10 µM

Q: And the IC50 [6]?
A: < 0.0316 µM

Q: And the viability, T/C [7]?
A: 100%

Q: And the viability, T/C [8]?
A: 103%

Q: And the viability, T/C [9]?
A: 103%

Q: What about the viability, T/C [10] of the same compound?
A: 99.6%

Q: And the viability, T/C [11]?
A: 89.3%

Q: And the viability, T/C [12]?
A: 91.3%

Q: What about the viability, T/C [13] of the same compound?
A: 101%

Q: What about the viability, T/C [14] of the same compound?
A: 96.8%

Q: What about the viability, T/C [15] of the same compound?
A: 97.5%

Q: And the viability, T/C [16]?
A: 87.4%

Q: What about the viability, T/C [17] of the same compound?
A: 95.1%

Q: And the viability, T/C [18]?
A: 91.4%

Q: What about the viability, T/C [19] of the same compound?
A: 90.7%

Q: And the viability, T/C [20]?
A: 88.1%

Q: And the viability, T/C [21]?
A: 87%

Q: And the viability, T/C [22]?
A: 86.1%

Q: What about the viability, T/C [23] of the same compound?
A: 80.4%

Q: What about the viability, T/C [24] of the same compound?
A: 79.5%

Q: What about the viability, T/C [25] of the same compound?
A: 77.9%

Q: And the viability, T/C [26]?
A: 77.4%

Q: And the viability, T/C [27]?
A: 77%

Q: What about the viability, T/C [28] of the same compound?
A: 72.4%

Q: What about the viability, T/C [29] of the same compound?
A: 68.9%

Q: What about the viability, T/C [30] of the same compound?
A: 70.5%

Q: What about the viability, T/C [31] of the same compound?
A: 52.7%

Q: And the viability, T/C [32]?
A: 56.1%

Q: And the viability, T/C [33]?
A: 55%

Q: And the viability, T/C [34]?
A: 52.7%

Q: And the viability, T/C [35]?
A: 50.6%

Q: And the viability, T/C [36]?
A: 54.9%

Q: And the viability, T/C [37]?
A: 36.3%

Q: What about the viability, T/C [38] of the same compound?
A: 34.2%

Q: And the viability, T/C [39]?
A: 34.5%

Q: And the viability, T/C [40]?
A: 34.5%

Q: What about the viability, T/C [41] of the same compound?
A: 31.2%

Q: What about the viability, T/C [42] of the same compound?
A: 5.29%

Q: What does the source list for `CC(Cn1ccc(-c2ccc(C#N)c(Cl)c2)n1)NC(=O)c1cc(C(C)O)[nH]n1` (centres undefined) + CC(Nc1ncnc2nc[nH]c12)c1cc2cccc(Cl)c2c(=O)n1-c1ccccc1?
A: IC50 [1]: > 10 µM; IC50 [2]: > 10 µM; IC50 [3]: > 10 µM; IC50 [4]: > 10 µM; IC50 [5]: > 10 µM; IC50 [6]: > 10 µM; viability, T/C [7]: 99.4%; viability, T/C [8]: 91.1%; viability, T/C [9]: 116%; viability, T/C [10]: 94%; viability, T/C [11]: 105%; viability, T/C [12]: 84.5%; viability, T/C [13]: 99%; viability, T/C [14]: 89.3%; viability, T/C [15]: 115%; viability, T/C [16]: 108%; viability, T/C [17]: 108%; viability, T/C [18]: 80.5%; viability, T/C [19]: 97.9%; viability, T/C [20]: 99%; viability, T/C [21]: 95.2%; viability, T/C [22]: 119%; viability, T/C [23]: 99.4%; viability, T/C [24]: 87.3%; viability, T/C [25]: 107%; viability, T/C [26]: 93.8%; viability, T/C [27]: 106%; viability, T/C [28]: 113%; viability, T/C [29]: 90.8%; viability, T/C [30]: 80%; viability, T/C [31]: 92.2%; viability, T/C [32]: 96%; viability, T/C [33]: 94.7%; viability, T/C [34]: 91.3%; viability, T/C [35]: 92.4%; viability, T/C [36]: 69.5%; viability, T/C [37]: 78.4%; viability, T/C [38]: 93.3%; viability, T/C [39]: 86.8%; viability, T/C [40]: 79.7%; viability, T/C [41]: 89.7%; viability, T/C [42]: 69%

Q: For `C#Cc1c(F)ccc2cc(O)cc(-c3ncc4c(N5CC6CCC(C5)N6)nc(OCC56CCCN5CC(F)C6)nc4c3F)c12` (centres undefined), which viability, T/C (compound 0.0316 µM) is on record?
A: 105% [middle of 4 runs]

Q: And the viability, T/C (compound 0.316 µM)?
A: 111% and 104% (2×) and 105%

Q: And the viability, T/C (compound 1 µM)?
A: 104% [middle of 4 runs]

Q: And the viability, T/C (compound 3.16 µM)?
A: 107% [middle of 4 runs]

Q: What about the viability, T/C (compound 10 µM) of the same compound?
A: 108% and 105% (2×) and 101%

Q: And the IC50 (curve of compound)?
A: > 10 µM

Q: `CCCS(=O)(=O)Nc1ccc(F)c(C(=O)c2c[nH]c3ncc(-c4ccc(Cl)cc4)cc23)c1F` + CC(Nc1ccc2c(c1)OCCn1cc(N3C(=O)OCC3C(F)F)nc1-2)C(N)=O was tested. Which IC50 (curve of first compound, second compound 0.00316 µM) did it give?
A: 5.19 µM

Q: And the IC50 (curve of first compound, second compound 0.01 µM)?
A: 5.51 µM

Q: What about the IC50 [1] of the same compound?
A: 4.72 µM

Q: What about the IC50 [2] of the same compound?
A: 4.82 µM

Q: And the IC50 [3]?
A: 4.48 µM

Q: What about the IC50 [4] of the same compound?
A: 3.55 µM

Q: And the viability, T/C (second compound 0.00316 µM, first compound 0.0316 µM)?
A: 108%

Q: What about the viability, T/C (second compound 0.00316 µM, first compound 0.1 µM) of the same compound?
A: 105%

Q: And the viability, T/C (second compound 0.00316 µM, first compound 0.316 µM)?
A: 105%

Q: What about the viability, T/C (second compound 0.00316 µM, first compound 1 µM) of the same compound?
A: 106%

Q: What about the viability, T/C (second compound 0.00316 µM, first compound 3.16 µM) of the same compound?
A: 87.5%

Q: And the viability, T/C (second compound 0.00316 µM, first compound 10 µM)?
A: 0.36%

Q: And the viability, T/C (second compound 0.01 µM, first compound 0.0316 µM)?
A: 112%

Q: And the viability, T/C (second compound 0.01 µM, first compound 0.1 µM)?
A: 91%

Q: What about the viability, T/C (second compound 0.01 µM, first compound 0.316 µM) of the same compound?
A: 109%

Q: What about the viability, T/C (second compound 0.01 µM, first compound 1 µM) of the same compound?
A: 129%

Q: And the viability, T/C (second compound 0.01 µM, first compound 3.16 µM)?
A: 96.5%

Q: What about the viability, T/C (second compound 0.01 µM, first compound 10 µM) of the same compound?
A: 0.28%

Q: What about the viability, T/C [7] of the same compound?
A: 104%

Q: And the viability, T/C [8]?
A: 111%

Q: And the viability, T/C [9]?
A: 93.3%

Q: What about the viability, T/C [10] of the same compound?
A: 112%

Q: And the viability, T/C [11]?
A: 76.5%

Q: What about the viability, T/C [12] of the same compound?
A: 0.32%

Q: What about the viability, T/C [13] of the same compound?
A: 98.3%

Q: And the viability, T/C [14]?
A: 92.3%

Q: What about the viability, T/C [15] of the same compound?
A: 97.9%

Q: And the viability, T/C [16]?
A: 98.9%

Q: What about the viability, T/C [17] of the same compound?
A: 77.3%

Q: And the viability, T/C [18]?
A: 2.36%

Q: And the viability, T/C [19]?
A: 94.5%

Q: What about the viability, T/C [20] of the same compound?
A: 83.4%

Q: What about the viability, T/C [21] of the same compound?
A: 88.1%

Q: What about the viability, T/C [22] of the same compound?
A: 84.5%

Q: What about the viability, T/C [23] of the same compound?
A: 71.9%

Q: And the viability, T/C [24]?
A: 0.44%

Q: And the viability, T/C [25]?
A: 63.8%

Q: What about the viability, T/C [26] of the same compound?
A: 60.6%

Q: What about the viability, T/C [27] of the same compound?
A: 65.8%

Q: What about the viability, T/C [28] of the same compound?
A: 64.9%

Q: What about the viability, T/C [29] of the same compound?
A: 55.2%

Q: What about the viability, T/C [30] of the same compound?
A: 0.54%

Q: What does the source list for `C[C@@H](NC(=O)c1ncnc(N)c1Cl)c1ncc(C(=O)Nc2cc(C(F)(F)F)c(Cl)cn2)s1`?
A: viability, T/C (compound 0.0316 µM): 105% [middle of 4 runs]; viability, T/C (compound 0.1 µM): 98.5% [middle of 4 runs]; viability, T/C (compound 0.316 µM): 103% [middle of 4 runs]; viability, T/C (compound 1 µM): 106% and 107% (2×) and 91.5%; viability, T/C (compound 3.16 µM): 114% [middle of 4 runs]; viability, T/C (compound 10 µM): 117% [middle of 4 runs]; IC50 (curve of compound): > 10 µM
